Reference: patent US12258368B2, “Disulfide-linked reversible terminators” (CENTRILLION TECHNOLOGY HOLDINGS CORPORATION, priority 2018, dated 2025)

System: DNA polymerase ("CENT1")
Experiment: Enzymatic incorporation (primer extension) into a growing DNA chain, with runaway reaction
Type: biochemical
Conditions: for blockage of further extension after incorporation of the terminator: "runaway" reaction in the presence of all four unmodified dNTPs and a polymerase, lane 4; for further extension by the next base added after the cleavage: lane 6; for enzymatic incorporation: in the presence of DNA polymerase ("CENT1"), lane 3

Row | SMILES | blockage of further extension after incorporation of the terminator | further extension by the next base added after the cleavage | enzymatic incorporation | continued extension in a "runaway" reaction after cleavage (all four unmodified dNTPs and a DNA polymerase, FIG. 4 lanes 7 and 8)
1 | CC(=O)SCO[C@H]1C[C@H](n2cc(C#CCNC(=O)OC(C)(C)C)c(=O)[nH]c2=O)O[C@@H]1COP(=O)(O)OP(=O)(O)OP(=O)(O)O [compound 60, S-((((2R,3S,5R)-5-(5-(3-((tert-butoxycarbonyl)amino)prop-1-yn-1-yl)-2,4-dioxo-3,4-dihydropyrimidin-1 (2H)-yl)-2-(((hydroxy((hydroxy(phosphonooxy)phosphoryl)oxy)phosphoryl)oxy)methyl)tetrahydrofuran-3-yl)oxy)methyl) ethanethioate] | blockage of further extension after incorporation of the terminator | further extension by the next base added | can be used in enzymatic incorporation | 
2 | CSSCO[C@@H]1C[C@H](n2cc(C#CCNC(=O)OCCSSCCNC(=O)c3ccc(C4=c5cc6c(cc5Oc5cc7c(cc54)C(CS(=O)(=O)O)=CC(C)(C)N7)=NC(C)(C)C=C6CS(=O)(=O)O)cc3C(=O)O)c(=O)[nH]c2=O)O[C@@H]1COP(=O)(O)OP(=O)(O)OP(=O)(O)O [compound 75, (6-(3-carboxy-4-((2-((2-(((3-(1-((2R,4R,5R)-5-(((hydroxy((hydroxy(phosphonooxy)phosphoryl)oxy)phosphoryl)oxy)methyl)-4-((methyldisulfaneyl)methoxy)tetrahydrofuran-2-yl)-2,4-dioxo-1,2,3,4-tetrahydropyrimidin-5-yl)prop-2-yn-1-yl)carbamoyl)oxy)ethyl)disulfaneyl)ethyl)carbamoyl)phenyl)-2,2,10,10-tetramethyl-8-(sulfomethyl)-10,11-dihydro-2H-pyrano[3,2-g:5,6-g′]diquinolin-1-ium-4-yl)methanesulfonate] | excellent blockage | further extension with on base added | excellent enzymatic incorporation | continued extension
